Measured values reported in EP1781807B1, “FLUORESCENCE-BASED KINETIC DETERMINATION OF TRANSGLUTAMINASE ACTIVITY” (N-Zyme BioTec GmbH, priority 2004, dated 2006).
Where a SMILES comes first, the peptide text is derived from it. [ ]: non-standard residue; d: D form. The star is where a group is joined. X1 = O=[N+]([O-])c1ccc(NCCCCCN*)c([N+](=O)[O-])c1; 2Abz = Nc1ccccc1C(=O)O; Ahx = NCCCCCC(=O)O

How the values were obtained:
Assay type in all cases: biochemical
[1] = target: T1, gereinigte rekombinante humane Transglutaminase 2 (Homo sapiens, UniProt P21980); test: Selectivity of measurement of different transglutaminases, 2. Ansatz (Beispiel 4); details: substrate 50 µM, rhHis6TG2 0,25 µM, 6 % DMSO, Exc. 310 nm, Em. 427 nm, 20 min
T1 construct: His6
T1 sequence (P21980 1-687): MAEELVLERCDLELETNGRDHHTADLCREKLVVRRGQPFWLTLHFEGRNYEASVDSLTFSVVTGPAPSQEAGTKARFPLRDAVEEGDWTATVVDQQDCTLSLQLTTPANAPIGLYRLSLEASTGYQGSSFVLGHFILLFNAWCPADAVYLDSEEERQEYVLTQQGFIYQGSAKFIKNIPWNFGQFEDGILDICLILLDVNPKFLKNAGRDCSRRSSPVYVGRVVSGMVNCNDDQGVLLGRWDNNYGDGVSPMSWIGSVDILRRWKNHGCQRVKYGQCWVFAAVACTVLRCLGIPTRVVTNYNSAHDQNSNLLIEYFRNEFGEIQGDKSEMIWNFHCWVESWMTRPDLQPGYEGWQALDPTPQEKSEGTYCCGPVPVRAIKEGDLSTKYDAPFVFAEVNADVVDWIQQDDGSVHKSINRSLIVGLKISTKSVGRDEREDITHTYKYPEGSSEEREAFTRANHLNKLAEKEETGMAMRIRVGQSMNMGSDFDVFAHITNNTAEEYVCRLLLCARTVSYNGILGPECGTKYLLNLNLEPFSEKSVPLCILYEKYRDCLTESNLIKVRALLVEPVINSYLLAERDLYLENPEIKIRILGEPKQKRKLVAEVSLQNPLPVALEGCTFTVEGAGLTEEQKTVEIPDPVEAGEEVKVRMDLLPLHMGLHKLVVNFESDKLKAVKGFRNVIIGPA
Source text: (§1) Selektivität der Messungen verschiedener Transglutaminasen
2. Ansatz: Abz-Asn-Glu(CAD-DNP)-Glu-Gln-Val-Ser-Pro-Leu-Thr-Leu-Leu-Lys (2), Transglutaminase: gereinigte rekombinante humane Transglutaminase 2

FXIII = target: T2, FXIII (Homo sapiens, UniProt P00488); test: Kinetic measurement of FXIII in plasma (Beispiel 1); details: in Gegenwart von 5 mM Glycinethylester, otherwise identical conditions; 100 µl Citratplasma, 20 NIH Units Thrombin, 37°C, Exc. 310 nm, Em. 427 nm
T2 construct: Kinetische Messung von FXIII in Plasmen; from tissue; host or cells: plasma
T2 sequence (P00488 1-732): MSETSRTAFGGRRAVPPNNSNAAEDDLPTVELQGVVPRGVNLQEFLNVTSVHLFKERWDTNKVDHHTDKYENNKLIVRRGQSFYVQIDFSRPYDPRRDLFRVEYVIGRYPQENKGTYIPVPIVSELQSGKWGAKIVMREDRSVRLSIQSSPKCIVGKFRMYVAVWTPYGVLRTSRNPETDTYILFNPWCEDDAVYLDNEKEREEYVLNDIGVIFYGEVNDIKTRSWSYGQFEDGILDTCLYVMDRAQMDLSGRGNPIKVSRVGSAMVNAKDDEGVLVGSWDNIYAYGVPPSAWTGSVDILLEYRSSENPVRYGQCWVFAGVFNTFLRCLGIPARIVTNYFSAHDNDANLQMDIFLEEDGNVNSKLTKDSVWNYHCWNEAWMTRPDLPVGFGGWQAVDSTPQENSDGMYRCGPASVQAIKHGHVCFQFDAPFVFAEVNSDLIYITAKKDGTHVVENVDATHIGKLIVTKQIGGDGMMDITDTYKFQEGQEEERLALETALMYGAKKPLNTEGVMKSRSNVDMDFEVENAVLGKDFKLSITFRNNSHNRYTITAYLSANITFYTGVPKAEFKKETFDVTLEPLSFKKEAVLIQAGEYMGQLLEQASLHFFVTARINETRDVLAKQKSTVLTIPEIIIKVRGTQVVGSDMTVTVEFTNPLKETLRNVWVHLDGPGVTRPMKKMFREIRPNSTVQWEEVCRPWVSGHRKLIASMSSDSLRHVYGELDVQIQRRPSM
Source text: Kinetische Messung von FXIII in Plasmen
Substratpeptid: Abz-Asn-Glu(CAD-DNP)-Glu-Gln-Val-Ser-Pro-Leu-Thr-Leu-Leu-Lys (2)
Die Substratsequenz Asn-Gln-Glu-Gln-Val-Ser-Pro-Leu-Thr-Leu-Leu-Lys ist einem natürlichen Substrat des FXIII entnommen und wurde bereits zur kinetischen Messungen von FXIII in der Literatur beschrieben (Kärpäti L. et al., Clin Chem., 46:12, 2000, 1946-55). Durch die erfindungsgemäße Modifikation dieses Peptides kann eine kinetische Messung in Plasmen durchgeführt werden (unterer Graph in Fig. 3). Die Messung wurde in diesem speziellen Fall wie folgt durchgeführt.

Faktor XIII [2] = target: T3, Faktor XIII (Homo sapiens, UniProt P00488); test: Comparison of fluorescence-labelled transglutaminase peptide substrates, kinetic measurement (Beispiel 5); details: 900 µl thrombin-containing 50 µM peptide solution + 100 µl Humanplasma
T3 construct: 100 µl humanem Plasma (durch Thrombin aktiviert); from tissue; host or cells: human plasma
T3 sequence (P00488 39-732): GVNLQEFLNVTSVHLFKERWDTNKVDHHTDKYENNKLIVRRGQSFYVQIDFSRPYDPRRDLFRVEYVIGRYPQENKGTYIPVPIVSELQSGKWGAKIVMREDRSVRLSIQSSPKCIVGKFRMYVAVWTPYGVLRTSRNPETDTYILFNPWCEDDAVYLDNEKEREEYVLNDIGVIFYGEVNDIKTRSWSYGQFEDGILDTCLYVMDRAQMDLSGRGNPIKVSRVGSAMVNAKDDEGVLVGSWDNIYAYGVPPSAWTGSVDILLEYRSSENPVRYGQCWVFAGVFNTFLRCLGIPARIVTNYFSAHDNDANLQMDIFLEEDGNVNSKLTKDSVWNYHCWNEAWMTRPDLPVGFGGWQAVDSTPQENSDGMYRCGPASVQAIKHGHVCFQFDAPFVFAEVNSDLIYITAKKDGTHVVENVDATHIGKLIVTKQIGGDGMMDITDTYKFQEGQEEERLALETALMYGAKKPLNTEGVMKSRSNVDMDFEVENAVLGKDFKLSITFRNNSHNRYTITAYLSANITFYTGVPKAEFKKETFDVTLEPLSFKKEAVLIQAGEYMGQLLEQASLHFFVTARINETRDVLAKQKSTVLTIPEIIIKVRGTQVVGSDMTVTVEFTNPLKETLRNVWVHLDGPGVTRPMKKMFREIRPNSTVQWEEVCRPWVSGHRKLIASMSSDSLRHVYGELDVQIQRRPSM
Procedure: Vergleich von Transglutaminasepeptidsubstraten
Für den Vergleich verschiedener mit fluoreszierenden Gruppen markierter Transglutaminasepeptidsubstrate wurden kinetische Messungen unter identischen Bedingungen durchgeführt. Dazu wurden zu 900 µl einer thrombinhaltigen 50 µM Lösung des Peptids 100 µl Humanplasma zugesetzt. Diese Bedingungen entsprechen denen, die bei heutzutage üblichen Faktor XIII - Messungen (wie bei dem Marktführer: Berichrom) zum Einsatz kommen. […] Auch die Verwendung von Abz als Fluorophor (Abz-Ahx-Glu(CAD-DNP)-Gln-Ile-Val, (Parameswaran et al.,
Um die Substrateigenschaften gegenüber den Substraten des Standes der Technik zu verbessern und somit klinisch relevante Messungen zu ermöglichen, wurde ausgehend von Verbindung 1 durch routinemäßiges Experimentieren das Peptidrückgrat so verändert, dass ein Substrat entstand, das durch FXIII schneller umgesetzt werden sollte (DNS-Ahx-Glu(CAD-DNP)-Glu-Gln-Val-Ser-Pro-Leu-Thr-Leu-Leu-Lys, 2).
Gegenüber dem Peptid, das in der Literatur (Kärpäti et al.) beschrieben wird, ist die Verbindung 2 um eine Aminosäure am N-Terminus verkürzt. Dahinter stand die Absicht, die im Stand der Technik bekannte und oben beschriebene fluorogene Teilstruktur zu erhalten. Es ist aber bekannt, dass gerade die Aminsäuren, die der Bindungsstelle von Enzymen direkt benachbart sind, besonders großen Einfluss auf die Substrateigenschaften von Peptiden, bzw. Proteinen haben. Deshalb wurde in einer weiteren Modifikation von Verbindung 1 die Verbindung 3 hergestellt. (DNS-Ahx-Asn-Glu(CAD-DNP)-Glu-Gln-Val-Ser-Pro-Leu-Thr-Leu-Leu-Lys, 3).
Beispielhaft wird dies im Vergleich in Fig. 6 anhand der Reaktion von 100 µl humanem Plasma (durch Thrombin aktiviert) und einer 50 µM Lösung des Peptides Abz-Asn-Glu(CAD-DNP)-Glu-Gln-Val-Ser-Pro-Leu-Thr-Leu-Leu-Lys (Verbindung 2)) gezeigt. Dem Vergleich der Strukturen und der Fluoreszenzdaten ist zu entnehmen, dass diese Wirkung auch für andere Transglutaminasen und andere Peptide Gültigkeit hat.

Faktor XIII [3] = target: T4, Faktor XIII (Homo sapiens, UniProt P00488); test: Selectivity of measurement of different transglutaminases, 1. Ansatz (Beispiel 4); details: substrate 50 µM, 100 µl Citratplasma, 6 % DMSO, Exc. 310 nm, Em. 427 nm, 20 min
T4 construct: 100 µl Citratplasma; from tissue; host or cells: citrate plasma
T4 sequence (P00488 1-732): T2 sequence (P00488 1-732)
Source text: as §1
1. Ansatz: Substratpeptid: Abz-Ala-Pro-Glu(CAD-DNP)-Gln-Glu-Ala (3), Transglutaminase: Faktor XIII

Molecule	Steigerung der Fluoreszenz (Faktor XIII [2])	other results
2-Aminobenzoyl-L-asparaainyl-N^δ-[N-(2,4-dinitrophenyl)1-5-aminopentyl]-L-glutaminyl-L-glutamyl-L-glutaminyl-L-valinyl-L-serinyl-L-prolinyl-L-leucinyl-L-threoninyl-L-leucinyl-L-leucin-L-lysin [Verbindung 2]	wesentliche Verbesserung der Fluoreszenzsteigerung	Anstieg der Fluoreszenz [1]: Ergebnis: kein Anstieg der Fluoreszenz; Signal (Fluoreszenzänderung) (FXIII): Signal zusätzlich verstärkt
CC[C@H](C)[C@H](NC(=O)[C@H](CCC(N)=O)NC(=O)[C@H](CCC(=O)NCCCCCNc1ccc([N+](=O)[O-])cc1[N+](=O)[O-])NC(=O)CCCCCNC(=O)c1ccccc1N)C(=O)N[C@H](C(=O)O)C(C)C [Abz-Ahx-Glu(CAD-DNP)-Gln-Ile-Val] (H-[2Abz][Ahx]E(X1)QIV-OH)	keine messbare Steigerung der Fluoreszenz	–
C[C@H](NC(=O)[C@H](CCC(=O)O)NC(=O)[C@H](CCC(N)=O)NC(=O)[C@H](CCC(=O)NCCCCCNc1ccc([N+](=O)[O-])cc1[N+](=O)[O-])NC(=O)[C@@H]1CCCN1C(=O)[C@H](C)NC(=O)c1ccccc1N)C(=O)O [Verbindung 3] (H-[2Abz]APE(X1)QEA-OH)	–	Anstieg der Fluoreszenz (Faktor XIII [3]): Ergebnis: kein Anstieg der Fluoreszenz
DNS-Ahx-Asn-Glu(CAD-DNP)-Glu-Gln-Val-Ser-Pro-Leu-Thr-Leu-Leu-Lys	nicht zu dem gewünschten Ergebnis	–
DNS-Ahx-Gln(CAD-DNP)-Glu-lle-Val-OH [Verbindung 1]	keine messbare Steigerung der Fluoreszenz	–
DNS-Ahx-Glu(CAD-DNP)-Glu-Gln-Val-Ser-Pro-Leu-Thr-Leu-Leu-Lys	nicht zu einer Verbesserung	–
